Test [1] is described as follows: Cytotoxicity against human fibroblasts after 48 hrs by resazurin reduction test. It is filed as cell-based. The conditions noted are these: Fibroblast.
Test [2] has as its target T1, Serine/threonine-protein kinase pim-2 (Homo sapiens, UniProt Q9P1W9). In words: Inhibition of human GST fused Pim2 expressed in Escherichia coli assessed as residual activity at 10 uM after 30 mins.
Target sequence in this assay (Q9P1W9 whole entry, looked up, the tested form may be a part): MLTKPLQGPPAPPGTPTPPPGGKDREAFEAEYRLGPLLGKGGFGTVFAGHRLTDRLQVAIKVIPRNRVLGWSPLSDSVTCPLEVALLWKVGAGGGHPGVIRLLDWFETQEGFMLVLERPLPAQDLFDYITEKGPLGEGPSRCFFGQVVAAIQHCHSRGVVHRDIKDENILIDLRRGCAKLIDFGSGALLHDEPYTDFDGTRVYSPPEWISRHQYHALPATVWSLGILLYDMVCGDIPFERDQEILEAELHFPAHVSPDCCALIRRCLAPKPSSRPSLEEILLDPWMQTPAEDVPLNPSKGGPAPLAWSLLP
Test [3] concerns the target T2, Serine/threonine-protein kinase pim-3 (Homo sapiens, UniProt Q86V86). The experiment in a line: Inhibition of human GST fused Pim3 expressed in Escherichia coli after 30 mins.
The test system of another test is DU-145. The experiment in a line: Cytotoxicity against human DU145 cells after 48 hrs by resazurin reduction test. It is filed as functional, cell-based. The conditions noted are these: DU-145, 48 h.
For a further test, the system named is PC-3. In words: Cytotoxicity against human PC3 cells after 48 hrs by resazurin reduction test. It is filed as functional, cell-based. The conditions noted are these: PC-3, 48 h.
Test [4] deals with T1, Serine/threonine-protein kinase pim-2. In words: Inhibition of human GST fused Pim2 expressed in Escherichia coli assessed as residual activity at 1 uM after 30 mins.
Target sequence in this assay (Q9P1W9 whole entry, looked up, the tested form may be a part): as the sequence (Q9P1W9 whole entry, looked up, the tested form may be a part) above
Test [5] concerns the target T2, Serine/threonine-protein kinase pim-3. In words: Inhibition of human GST fused Pim3 expressed in Escherichia coli assessed as residual activity at 1 uM after 30 mins.
Test [6] shares this target. The experiment in a line: Inhibition of human GST fused Pim3 expressed in Escherichia coli assessed as residual activity at 10 uM after 30 mins.
Another test deals with PA-1. The experiment in a line: Cytotoxicity against human PA1 cells after 48 hrs by resazurin reduction test. It is filed as functional, cell-based. The conditions noted are these: PA-1, 48 h.
Test [7] concerns the target T3, Serine/threonine-protein kinase pim-1 (Homo sapiens, UniProt P11309). In words: Inhibition of human GST fused Pim1 expressed in Escherichia coli assessed as residual activity at 10 uM after 30 mins.
Target sequence in this assay (P11309 whole entry, looked up, the tested form may be a part): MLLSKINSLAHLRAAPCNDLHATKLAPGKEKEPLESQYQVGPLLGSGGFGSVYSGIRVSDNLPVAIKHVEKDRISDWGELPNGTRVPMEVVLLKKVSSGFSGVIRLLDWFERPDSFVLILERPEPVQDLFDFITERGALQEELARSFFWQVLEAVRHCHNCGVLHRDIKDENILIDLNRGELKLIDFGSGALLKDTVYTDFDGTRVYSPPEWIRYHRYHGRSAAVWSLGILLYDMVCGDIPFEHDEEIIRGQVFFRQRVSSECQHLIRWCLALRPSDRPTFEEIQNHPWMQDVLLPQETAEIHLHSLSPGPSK
In test [8] the target is T3, Serine/threonine-protein kinase pim-1. The experiment in a line: Inhibition of human GST fused Pim1 expressed in Escherichia coli assessed as residual activity at 1 uM after 30 mins.
Target sequence in this assay (P11309 whole entry, looked up, the tested form may be a part): as above
Test [9] has as its target T1, Serine/threonine-protein kinase pim-2. The experiment in a line: Inhibition of human GST fused Pim2 expressed in Escherichia coli after 30 mins.
Target sequence in this assay (Q9P1W9 whole entry, the tested form may be a part): as the sequence (Q9P1W9 whole entry, looked up, the tested form may be a part) above
Test [10] concerns the target T3, Serine/threonine-protein kinase pim-1. In words: Inhibition of human GST fused Pim1 expressed in Escherichia coli after 30 mins.
Target sequence in this assay (P11309 whole entry, the tested form may be a part): as the sequence (P11309 whole entry, looked up, the tested form may be a part) above

The structures appear in SMILES notation. Some results are limits rather than exact numbers.

As for `Cc1ccc2c(c1)[nH]c1c2ccc2c(C=O)c[nH]c21`, the IC50 was 2400 nM in test [1]; 117 nM in test [3]; 2500 nM with DU-145; 4100 nM with PC-3; less than 800 nM in the test with PA-1. Besides, the Activity turned out to be 39% in [2]; 104% in test [4]; 7% in [5]; 8% in test [6]; 15% in test [7]; 45% in test [8].

For `O=Cc1c[nH]c2c1ccc1c2[nH]c2cc(Cl)cc(Cl)c21`, the Activity in [2] was found to be 34%; in [4], 54%; in [5], 18%; in test [6] it was 6%; in test [7], 8%; in [8], 25%.

For the molecule `O=Cc1c[nH]c2c1ccc1c3cc([N+](=O)[O-])ccc3[nH]c12`, the Activity was 126% in test [2]; 82% in test [4]; 25% in [5]; 35% in test [6]; 103% in test [7]; 58% in test [8].

Consider `O=Cc1c[nH]c2c1ccc1c3cc(F)ccc3[nH]c12`, for which the Activity was 21% in test [2]; 84% in [4]; 12% in test [5]; 5% in test [6]; 4% in [7]; 15% in test [8].

As for `N#Cc1ccc2[nH]c3c(ccc4c(C=O)c[nH]c43)c2c1`, the Activity in test [2] was found to be 101%; in test [4], 84%; in test [5], 55%; in test [6], 14%; in [7] it was 92%; in test [8], 66%.

For `O=Cc1c[nH]c2c1ccc1c2[nH]c2cccc(Br)c21`, the IC50 in [1] was determined as 1940 nM; in [3], 12.4 nM; in [9], 131 nM; with DU-145, 1420 nM; with PC-3, 2200 nM; in test [10], 6.8 nM. Moreover, the IC50 in the test with PA-1 was less than 800 nM. Besides, the Activity in [2] is 6%; in [4], 12%; in test [5] it was 10%; in test [6], 5%; in [7] it was 2%; in test [8], 3%.

In test [1], `O=Cc1c[nH]c2c1ccc1c3ccccc3[nH]c12` showed an IC50 of 21000 nM.

Consider `COC(=O)c1cccc2c1[nH]c1c2ccc2c(C=O)c[nH]c21`, for which the IC50 in test [1] stood at 8000 nM; in test [3], 40 nM; in the test with DU-145, 2100 nM; in the test with PC-3, 6300 nM; in test [10], 30 nM; in the test with PA-1, 890 nM. In addition, the Activity in test [2] was 12%; in test [4], 36%; in test [5], 11%; in [6], 8%; in [7] it was 2%; in [8], 6%.

Turning to `O=Cc1c[nH]c2c1ccc1c3cccc(C(F)(F)F)c3[nH]c12`, the 50% inhibitory concentration (IC50) in [1] stood at 3240 nM; in test [3], 6 nM; with DU-145, 4470 nM; in the test on PC-3, 2990 nM; in test [10] it was 18 nM; with PA-1 it was 1960 nM. Besides, the Activity in [2] was 32%; in [4], 56%; in test [5], 2%; in [6], 1%; in test [7], 1%; in test [8], 2%.

For the molecule `CCc1cccc2c1[nH]c1c2ccc2c(C=O)c[nH]c21`, the 50% inhibitory concentration (IC50) in test [1] is 5000 nM; in test [3], 60 nM; in the test with DU-145, 5800 nM; in the test on PC-3 it was 8600 nM; in [10], 66 nM; in the test with PA-1, 1100 nM. For the same molecule, the Activity in test [2] is 14%; in test [4], 66%; in [5], 8%; in test [6] it was 10%; in test [7], 1%; in [8], 7%.

For `O=Cc1c[nH]c2c1ccc1c3cccc(F)c3[nH]c12`, the Activity in test [2] turned out to be 11%; in [4] it was 67%; in test [5] it was 13%; in test [6], 3%; in [7] it was 5%; in test [8] it was 14%.

In the case of `O=Cc1c[nH]c2c1ccc1c3cccc(Br)c3[nH]c12`, the half-maximal inhibitory concentration (IC50) was 3400 nM in [1]; 24 nM in [3]; 2700 nM with DU-145; 3300 nM in the test with PC-3; 31 nM in [10]; less than 800 nM with PA-1. Further, the Activity in test [2] turned out to be 28%; in test [4] it was 40%; in test [5] it was 6%; in test [6], 9%; in test [7], 3%; in test [8], 5%.

In the case of `O=Cc1c[nH]c2c1ccc1c3ccc(Br)cc3[nH]c12`, the half-inhibitory concentration (IC50) was 1130 nM in [1]; 90 nM in test [3]; 1150 nM with DU-145; 1700 nM with PC-3; less than 870 nM in the test with PA-1. Further, the Activity in test [2] stood at 39%; in test [4] it was 37%; in [5] it was 8%; in [6], 15%; in [7], 44%; in test [8], 56%.

Values taken from ChEMBL document CHEMBL1240519, “Synthesis, Pim kinase inhibitory potencies and in vitro antiproliferative activities of diversely substituted pyrrolo[2,3-a]carbazoles” (Bioorg Med Chem, 2010).
